Source: PubChem BioAssay AID190 (DTP/NCI, 2004)
Several values for one entry are separate records, joined by “and”; a condition that tells them apart may be missing. Equal values may be shown once. Toxic doses and inconclusive results are not listed.

System: AKR/Lw mice, AKR lymphoma ip, median survival T/C
Assay: NCI In Vivo Anticancer Drug Screen. Data for tumor model Lymphoma AKR (Transplanted) (intraperitoneal) in AKR/Lw mice
Conditions: endpoint: median survival time, higher = longer survival
Experimental: The antitumor activity of compounds was measured in mice bearing transplantable tumors. Survival or tumor size were measured and the results are expressed as the measurement made in the treated group (T) divided by the measurement made in the vehicle treated control group (C). The tumor model used in this assay is Lymphoma AKR (Transplanted) (intraperitoneal) in AKR/Lw mice

[1] = dose: 100.0 mg/kg/injection, schedule: Q01DX001 (ip), vehicle: saline
[2] = dose: 100.0 mg/kg/injection, schedule: Q04DX003 (ip), vehicle: Klucel (hydroxypropylcellulose) (HPC)
[3] = dose: 200.0 mg/kg/injection, schedule: Q01DX001 (ip), vehicle: saline
[4] = dose: 200.0 mg/kg/injection, schedule: Q04DX003 (ip), vehicle: Klucel (hydroxypropylcellulose) (HPC)
[5] = dose: 400.0 mg/kg/injection, schedule: Q01DX001 (ip), vehicle: saline
[6] = dose: 400.0 mg/kg/injection, schedule: Q04DX003 (ip), vehicle: Klucel (hydroxypropylcellulose) (HPC)
[7] = dose: 100.0 mg/kg/injection, schedule: Q01DX001 (ip), vehicle: Klucel (hydroxypropylcellulose) (HPC)
[8] = dose: 50.0 mg/kg/injection, schedule: Q04DX003 (ip), vehicle: Klucel (hydroxypropylcellulose) (HPC)
[9] = dose: 200.0 mg/kg/injection, schedule: Q01DX001 (ip), vehicle: Klucel (hydroxypropylcellulose) (HPC)
[10] = dose: 400.0 mg/kg/injection, schedule: Q01DX001 (ip), vehicle: Klucel (hydroxypropylcellulose) (HPC)
[11] = dose: 50.0 mg/kg/injection, schedule: Q01DX001 (ip), vehicle: saline

`Cn1c(O)c(C=N)c(=O)[nH]c1=O` was tested, and the T/C [1] was 113 % of control, the T/C [2] was 104 % of control and the T/C [3] was 94 % of control. The T/C [4] was 93 % of control, the T/C [5] was 113 % of control and the T/C [6] was 97 % of control.
In the case of `S=C1SCN(Cc2ccccc2)CN1Cc1ccccc1`, the T/C [1] is reported as 111 % of control, the T/C [3] is reported as 91 % of control and the T/C [5] is reported as 91 % of control.
With `Nc1ccccc1SC1CC(=O)N(c2ccc(I)cc2)C1=O` (centres undefined) the T/C [7] was 93 % of control, the T/C [2] was 90 % of control and the T/C [4] was 86 % of control.
With `COc1ccc(/C=C2/CSC/C(=C/c3ccc(OC)c(OC)c3)C2=O)cc1OC` the T/C [1] was 96 % of control, the T/C [3] was 88 % of control and the T/C [5] was 90 % of control.
With `COC(=O)C1(C)CCC(c2ccc(OC)cc2)C(CC(=O)O)C1=O` (centres undefined) the T/C [8] was 100 % of control, the T/C [7] was 100 % of control and the T/C [2] was 100 % of control. For the same compound, the T/C [9] was 113 % of control and the T/C [10] was 105 % of control.
`C/C(=C\Cl)CN1C(=O)c2ccccc2C1=O` was tested, and the T/C [1] was 93 % of control, the T/C [3] was 102 % of control and the T/C [5] was 93 % of control.
For `COc1ccc(-n2c(=S)[nH]c3ccccc3c2=O)cc1`, the T/C (dose: 75.0 mg/kg/injection, schedule: Q04DX003 (ip), vehicle: Klucel (hydroxypropylcellulose) (HPC)) was 88 % of control, the T/C [7] was 106 % of control and the T/C (dose: 150.0 mg/kg/injection, schedule: Q04DX003 (ip), vehicle: Klucel (hydroxypropylcellulose) (HPC)) was 86 % of control. The T/C [9] was 87 % of control and the T/C [10] was 90 % of control.
For `O=C(O)O`, the T/C [1] was 86 % of control, the T/C [3] was 117 % of control and the T/C [5] was 95 % of control.
For `CCOC(=O)c1ccc(NCC(C)(C)[N+](=O)[O-])cc1`, the T/C [1] was 88 % of control and the T/C [5] was 88 % of control.
For `O=S1(=O)CC(O)C(Cl)C1` (centres undefined), the T/C [1] was 91 % of control, the T/C [3] was 91 % of control and the T/C [5] was 95 % of control.
With `COc1ccc(Br)cc1/C=N\NS(=O)(=O)c1ccc(C)cc1` the T/C [7] was 106 % of control, the T/C [2] was 106 % of control and the T/C [9] was 100 % of control. The T/C [4] was 86 % of control, the T/C [10] was 100 % of control and the T/C [6] was 86 % of control.
In the case of `COc1cc2c(cc1OC)C(CNC(=O)/C=C/c1ccccc1)C2` (centres undefined), the T/C [7] is reported as 102 % of control, the T/C [2] is reported as 96 % of control and the T/C [9] is reported as 94 % of control. For the same compound, the T/C [4] was 100 % of control, the T/C [10] was 89 % of control and the T/C [6] was 100 % of control.
For `CN(C)S(=O)(=O)Nc1cc(Cl)c(NS(=O)(=O)N(C)C)cc1Cl`, the T/C [7] was 93 % of control, the T/C [9] was 106 % of control and the T/C [10] was 100 % of control.
In the case of `S=c1[nH]nc(NC2CCCCC2)s1`, the T/C [7] is reported as 100 % of control, the T/C [2] is reported as 100 % of control and the T/C [9] is reported as 90 % of control. The T/C [4] was 90 % of control and the T/C [10] was 87 % of control.
For `NCOC(=O)Cc1ccc(Br)cc1`, the T/C [7] was 106 % of control, the T/C [9] was 102 % of control and the T/C [10] was 106 % of control.
For `CC(C)c1c[nH]c(=O)[nH]c1=O`, the T/C (dose: 25.0 mg/kg/injection, schedule: Q04DX003 (ip), vehicle: Klucel (hydroxypropylcellulose) (HPC)) was 97 % of control, the T/C [8] was 94 % of control and the T/C [2] was 94 % of control. The T/C [9] was 86 % of control and the T/C [10] was 92 % of control.
In the case of `C[N+]1(C)Cc2ccccc2-c2ccccc2C1`, the T/C [11] is reported as 94 % of control.
With `OCC1OC(n2cnc3c(Cl)ncnc32)C(O)C1O` (centres undefined) the T/C (dose: 6.2 mg/kg/injection, schedule: Q01DX009 (ip), vehicle: saline) was 100 % of control, the T/C (dose: 12.5 mg/kg/injection, schedule: Q01DX009 (ip), vehicle: saline) was 94 % of control and 96 % of control and 105 % of control and the T/C (dose: 25.0 mg/kg/injection, schedule: Q04DX003 (ip), vehicle: saline) was 93 % of control. The T/C [11] was 100 % of control, the T/C (dose: 50.0 mg/kg/injection, schedule: Q04DX003 (ip), vehicle: saline) was 100 % of control and 113 % of control and 116 % of control and the T/C [1] was 94 % of control and 102 % of control and 110 % of control. For the same compound, the T/C (dose: 100.0 mg/kg/injection, schedule: Q04DX003 (ip), vehicle: other) was 88 % of control, the T/C (dose: 150.0 mg/kg/injection, schedule: Q04DX003 (ip), vehicle: saline) was 100 % of control and the T/C (dose: 200.0 mg/kg/injection, schedule: Q01DX009 (ip), vehicle: saline) was 87 % of control and 101 % of control and 102 % of control. For the same compound, the T/C (dose: 200.0 mg/kg/injection, schedule: Q04DX003 (ip), vehicle: other) was 113 % of control, the T/C (dose: 250.0 mg/kg/injection, schedule: Q04DX003 (ip), vehicle: saline) was 118 % of control and the T/C (dose: 400.0 mg/kg/injection, schedule: Q01DX009 (ip), vehicle: saline) was 90 % of control and 96 % of control. For the same compound, the T/C (dose: 400.0 mg/kg/injection, schedule: Q04DX003 (ip), vehicle: other) was 119 % of control and 123 % of control, the T/C (dose: 500.0 mg/kg/injection, schedule: Q04DX003 (ip), vehicle: saline) was 88 % of control and the T/C (dose: 600.0 mg/kg/injection, schedule: Q01DX001 (ip), vehicle: saline) was 90 % of control and 92 % of control. The T/C (dose: 600.0 mg/kg/injection, schedule: Q04DX003 (ip), vehicle: saline) was 90 % of control (2×) and 113 % of control.
In the case of `COC(=O)C(COS(=O)(=O)c1ccccc1)NC(=O)OCc1ccccc1` (centres undefined), the T/C [1] is reported as 94 % of control, the T/C [3] is reported as 97 % of control and the T/C [5] is reported as 102 % of control.
For `NC(=S)N/N=C/c1ccccn1`, the T/C (dose: 0.12 mg/kg/injection, schedule: Q03HX032 (ip), vehicle: saline with Tween-80) was 122 % of control, the T/C (dose: 0.25 mg/kg/injection, schedule: Q03HX032 (ip), vehicle: saline with Tween-80) was 113 % of control and the T/C (dose: 0.5 mg/kg/injection, schedule: Q03HX032 (ip), vehicle: saline with Tween-80) was 122 % of control. The T/C (dose: 1.0 mg/kg/injection, schedule: Q03HX032 (ip), vehicle: saline with Tween-80) was 114 % of control, the T/C (dose: 1.25 mg/kg/injection, schedule: Q01DX009 (ip), vehicle: saline with Tween-80) was 96 % of control and the T/C (dose: 2.0 mg/kg/injection, schedule: Q04DX003 (ip), vehicle: saline with Tween-80) was 103 % of control. The T/C (dose: 3.5 mg/kg/injection, schedule: Q04DX003 (ip), vehicle: saline with Tween-80) was 96 % of control, the T/C (dose: 4.0 mg/kg/injection, schedule: Q04DX003 (ip), vehicle: saline with Tween-80) was 116 % of control and the T/C (dose: 5.0 mg/kg/injection, schedule: Q01DX009 (ip), vehicle: saline with Tween-80) was 94 % of control. The T/C (dose: 5.3 mg/kg/injection, schedule: Q04DX003 (ip), vehicle: saline with Tween-80) was 106 % of control, the T/C (dose: 8.0 mg/kg/injection, schedule: Q04DX003 (ip), vehicle: saline with Tween-80) was 109 % of control and the T/C (dose: 13.0 mg/kg/injection, schedule: Q04DX003 (ip), vehicle: saline with Tween-80) was 112 % of control.
`OCC1(O)CC(O)C(O)(CO)CC1O` (centres undefined) was tested, and the T/C [1] was 97 % of control, the T/C [3] was 116 % of control and the T/C [5] was 104 % of control.
For `CCN(CC)CCOc1ccc2c(c1)C(=O)c1cc(OCCN(CC)CC)ccc1-2`, the T/C (dose: 2.5 mg/kg/injection, schedule: Q01DX001 (ip), vehicle: saline) was 106 % of control, the T/C (dose: 5.0 mg/kg/injection, schedule: Q01DX001 (ip), vehicle: saline) was 106 % of control and the T/C (dose: 10.0 mg/kg/injection, schedule: Q01DX001 (ip), vehicle: saline) was 106 % of control. The T/C (dose: 20.0 mg/kg/injection, schedule: Q01DX001 (ip), vehicle: saline) was 100 % of control, the T/C (dose: 25.0 mg/kg/injection, schedule: Q01DX007 (ip), vehicle: saline) was 272 % of control and the T/C [11] was 102 % of control. For the same compound, the T/C (dose: 50.0 mg/kg/injection, schedule: Q01DX007 (ip), vehicle: saline) was 102 % of control.
`CC(=O)CC(=O)c1ccccc1` was tested, and the T/C [7] was 106 % of control, the T/C [9] was 106 % of control and the T/C [10] was 103 % of control.
